According to the supplement of paper PMC10307832:

Columns and labels:
Experiment in all cases: relative viability (nuclei count vs DMSO), 5 days (fraction); higher = more cells survive
Tipifarnib + Olaparib = compound: Cn1cncc1[C@@](N)(c1ccc(Cl)cc1)c1ccc2c(c1)c(-c1cccc(Cl)c1)cc(=O)n2C [Tipifarnib] + O=C(c1cc(Cc2n[nH]c(=O)c3ccccc23)ccc1F)N1CCN(C(=O)C2CC2)CC1 [Olaparib] (partner 8 µM)
Method in brief: (§1)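 Medians of duplicate plates are given as relative viability. That measure is the nuclei count in treated wells divided by the count in vehicle wells. Counts were taken on 4× images of lung cancer cell lines in 1536-well plates, 5 days after pin-tool dosing the day after seeding with one drug alone or a fixed anchor-drug dose plus five library-drug doses (not always all listed) in √10 steps.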

Tipifarnib + Palbociclib = compound: Cn1cncc1[C@@](N)(c1ccc(Cl)cc1)c1ccc2c(c1)c(-c1cccc(Cl)c1)cc(=O)n2C [Tipifarnib] + CC(=O)c1c(C)c2cnc(Nc3ccc(N4CCNCC4)cn3)nc2n(C2CCCC2)c1=O [Palbociclib] (partner 0.5 µM)
Method in brief: as §1

Tipifarnib + Alpelisib = compound: Cn1cncc1[C@@](N)(c1ccc(Cl)cc1)c1ccc2c(c1)c(-c1cccc(Cl)c1)cc(=O)n2C [Tipifarnib] + Cc1nc(NC(=O)N2CCC[C@H]2C(N)=O)sc1-c1ccnc(C(C)(C)C(F)(F)F)c1 [Alpelisib] (partner 2 µM)
Method in brief: as §1

Tipifarnib + Pemetrexed = compound: Cn1cncc1[C@@](N)(c1ccc(Cl)cc1)c1ccc2c(c1)c(-c1cccc(Cl)c1)cc(=O)n2C [Tipifarnib] + Nc1nc2[nH]cc(CCc3ccc(C(=O)N[C@@H](CCC(=O)O)C(=O)O)cc3)c2c(=O)[nH]1 [Pemetrexed] (partner 0.2 µM)
Method in brief: as §1

## HCC-366
Tipifarnib + Olaparib; first compound 0.01 µM
  relative viability: 0.302
Tipifarnib + Olaparib; first compound 0.03162 µM
  relative viability: 0.327
Tipifarnib + Olaparib; first compound 0.1 µM
  relative viability: 0.164
Tipifarnib + Olaparib; first compound 0.3162 µM
  relative viability: 0.199
Tipifarnib + Olaparib; first compound 1 µM
  relative viability: 0.106
Tipifarnib + Palbociclib; first compound 0.01 µM
  relative viability: 0.259
Tipifarnib + Palbociclib; first compound 0.03162 µM
  relative viability: 0.346
Tipifarnib + Palbociclib; first compound 0.1 µM
  relative viability: 0.199
Tipifarnib + Palbociclib; first compound 0.3162 µM
  relative viability: 0.179
Tipifarnib + Palbociclib; first compound 1 µM
  relative viability: 0.101
Tipifarnib + Alpelisib; first compound 0.01 µM
  relative viability: 0.559
Tipifarnib + Alpelisib; first compound 0.03162 µM
  relative viability: 0.47
Tipifarnib + Alpelisib; first compound 0.1 µM
  relative viability: 0.272
Tipifarnib + Alpelisib; first compound 0.3162 µM
  relative viability: 0.159
Tipifarnib + Alpelisib; first compound 1 µM
  relative viability: 0.0543
Tipifarnib + Pemetrexed; first compound 0.01 µM
  relative viability: 0.145
Tipifarnib + Pemetrexed; first compound 0.03162 µM
  relative viability: 0.143
Tipifarnib + Pemetrexed; first compound 0.1 µM
  relative viability: 0.167
Tipifarnib + Pemetrexed; first compound 0.3162 µM
  relative viability: 0.127
Tipifarnib + Pemetrexed; first compound 1 µM
  relative viability: 0.0507

## HCC-827
Tipifarnib + Olaparib; first compound 0.01 µM
  relative viability: 0.68
Tipifarnib + Olaparib; first compound 0.03162 µM
  relative viability: 0.693
Tipifarnib + Olaparib; first compound 0.1 µM
  relative viability: 0.545
Tipifarnib + Olaparib; first compound 0.3162 µM
  relative viability: 0.443
Tipifarnib + Olaparib; first compound 1 µM
  relative viability: 0.478
Tipifarnib + Palbociclib; first compound 0.01 µM
  relative viability: 0.455
Tipifarnib + Palbociclib; first compound 0.03162 µM
  relative viability: 0.495
Tipifarnib + Palbociclib; first compound 0.1 µM
  relative viability: 0.472
Tipifarnib + Palbociclib; first compound 0.3162 µM
  relative viability: 0.349
Tipifarnib + Palbociclib; first compound 1 µM
  relative viability: 0.439
Tipifarnib + Alpelisib; first compound 0.01 µM
  relative viability: 1.04
Tipifarnib + Alpelisib; first compound 0.03162 µM
  relative viability: 1.03
Tipifarnib + Alpelisib; first compound 0.1 µM
  relative viability: 0.767
Tipifarnib + Alpelisib; first compound 0.3162 µM
  relative viability: 0.626
Tipifarnib + Alpelisib; first compound 1 µM
  relative viability: 0.667
Tipifarnib + Pemetrexed; first compound 0.01 µM
  relative viability: 0.273
Tipifarnib + Pemetrexed; first compound 0.03162 µM
  relative viability: 0.32
Tipifarnib + Pemetrexed; first compound 0.1 µM
  relative viability: 0.286
Tipifarnib + Pemetrexed; first compound 0.3162 µM
  relative viability: 0.25
Tipifarnib + Pemetrexed; first compound 1 µM
  relative viability: 0.275

## HOP-62
Tipifarnib + Olaparib; first compound 0.01 µM
  relative viability: 0.337
Tipifarnib + Olaparib; first compound 0.03162 µM
  relative viability: 0.395
Tipifarnib + Olaparib; first compound 0.1 µM
  relative viability: 0.205
Tipifarnib + Olaparib; first compound 0.3162 µM
  relative viability: 0.193
Tipifarnib + Olaparib; first compound 1 µM
  relative viability: 0.2
Tipifarnib + Palbociclib; first compound 0.01 µM
  relative viability: 0.425
Tipifarnib + Palbociclib; first compound 0.03162 µM
  relative viability: 0.33
Tipifarnib + Palbociclib; first compound 0.1 µM
  relative viability: 0.268
Tipifarnib + Palbociclib; first compound 0.3162 µM
  relative viability: 0.188
Tipifarnib + Palbociclib; first compound 1 µM
  relative viability: 0.191
Tipifarnib + Alpelisib; first compound 0.01 µM
  relative viability: 1.31
Tipifarnib + Alpelisib; first compound 0.03162 µM
  relative viability: 0.824
Tipifarnib + Alpelisib; first compound 0.1 µM
  relative viability: 0.377
Tipifarnib + Alpelisib; first compound 0.3162 µM
  relative viability: 0.281
Tipifarnib + Alpelisib; first compound 1 µM
  relative viability: 0.325
Tipifarnib + Pemetrexed; first compound 0.01 µM
  relative viability: 0.233
Tipifarnib + Pemetrexed; first compound 0.03162 µM
  relative viability: 0.297
Tipifarnib + Pemetrexed; first compound 0.1 µM
  relative viability: 0.276
Tipifarnib + Pemetrexed; first compound 0.3162 µM
  relative viability: 0.208
Tipifarnib + Pemetrexed; first compound 1 µM
  relative viability: 0.222

## IA-LM
Tipifarnib + Olaparib; first compound 0.01 µM
  relative viability: 0.494
Tipifarnib + Olaparib; first compound 0.03162 µM
  relative viability: 0.504
Tipifarnib + Olaparib; first compound 0.1 µM
  relative viability: 0.485
Tipifarnib + Olaparib; first compound 0.3162 µM
  relative viability: 0.256
Tipifarnib + Olaparib; first compound 1 µM
  relative viability: 0.404
Tipifarnib + Alpelisib; first compound 0.01 µM
  relative viability: 0.362
Tipifarnib + Alpelisib; first compound 0.03162 µM
  relative viability: 0.289
Tipifarnib + Alpelisib; first compound 0.1 µM
  relative viability: 0.309
Tipifarnib + Alpelisib; first compound 0.3162 µM
  relative viability: 0.213
Tipifarnib + Alpelisib; first compound 1 µM
  relative viability: 0.214

## LC-2-ad
Tipifarnib + Olaparib; first compound 0.01 µM
  relative viability: 0.69
Tipifarnib + Olaparib; first compound 0.03162 µM
  relative viability: 0.667
Tipifarnib + Olaparib; first compound 0.1 µM
  relative viability: 0.666
Tipifarnib + Olaparib; first compound 0.3162 µM
  relative viability: 0.533
Tipifarnib + Olaparib; first compound 1 µM
  relative viability: 0.515
Tipifarnib + Palbociclib; first compound 0.01 µM
  relative viability: 0.464
Tipifarnib + Palbociclib; first compound 0.03162 µM
  relative viability: 0.439
Tipifarnib + Palbociclib; first compound 0.1 µM
  relative viability: 0.442
Tipifarnib + Palbociclib; first compound 0.3162 µM
  relative viability: 0.336
Tipifarnib + Palbociclib; first compound 1 µM
  relative viability: 0.38
Tipifarnib + Alpelisib; first compound 0.01 µM
  relative viability: 0.829
Tipifarnib + Alpelisib; first compound 0.03162 µM
  relative viability: 0.54
Tipifarnib + Alpelisib; first compound 0.1 µM
  relative viability: 0.375
Tipifarnib + Alpelisib; first compound 0.3162 µM
  relative viability: 0.411
Tipifarnib + Alpelisib; first compound 1 µM
  relative viability: 0.321
Tipifarnib + Pemetrexed; first compound 0.01 µM
  relative viability: 0.273
Tipifarnib + Pemetrexed; first compound 0.03162 µM
  relative viability: 0.271
Tipifarnib + Pemetrexed; first compound 0.1 µM
  relative viability: 0.283
Tipifarnib + Pemetrexed; first compound 0.3162 µM
  relative viability: 0.265
Tipifarnib + Pemetrexed; first compound 1 µM
  relative viability: 0.275

## LCLC-97TM1
Tipifarnib + Olaparib; first compound 0.01 µM
  relative viability: 0.447
Tipifarnib + Olaparib; first compound 0.03162 µM
  relative viability: 0.245
Tipifarnib + Olaparib; first compound 0.1 µM
  relative viability: 0.315
Tipifarnib + Olaparib; first compound 0.3162 µM
  relative viability: 0.229
Tipifarnib + Olaparib; first compound 1 µM
  relative viability: 0.239
Tipifarnib + Palbociclib; first compound 0.01 µM
  relative viability: 0.222
Tipifarnib + Palbociclib; first compound 0.03162 µM
  relative viability: 0.154
Tipifarnib + Palbociclib; first compound 0.1 µM
  relative viability: 0.202
Tipifarnib + Palbociclib; first compound 0.3162 µM
  relative viability: 0.202
Tipifarnib + Palbociclib; first compound 1 µM
  relative viability: 0.236
Tipifarnib + Alpelisib; first compound 0.01 µM
  relative viability: 0.218
Tipifarnib + Alpelisib; first compound 0.03162 µM
  relative viability: 0.181
Tipifarnib + Alpelisib; first compound 0.1 µM
  relative viability: 0.2
Tipifarnib + Alpelisib; first compound 0.3162 µM
  relative viability: 0.17
Tipifarnib + Alpelisib; first compound 1 µM
  relative viability: 0.173
Tipifarnib + Pemetrexed; first compound 0.01 µM
  relative viability: 0.169
Tipifarnib + Pemetrexed; first compound 0.03162 µM
  relative viability: 0.208
Tipifarnib + Pemetrexed; first compound 0.1 µM
  relative viability: 0.192
Tipifarnib + Pemetrexed; first compound 0.3162 µM
  relative viability: 0.16
Tipifarnib + Pemetrexed; first compound 1 µM
  relative viability: 0.144

## LCLC-103H
Tipifarnib + Olaparib; first compound 0.01 µM
  relative viability: 0.81
Tipifarnib + Olaparib; first compound 0.03162 µM
  relative viability: 0.759
Tipifarnib + Olaparib; first compound 0.1 µM
  relative viability: 0.785
Tipifarnib + Olaparib; first compound 0.3162 µM
  relative viability: 0.708
Tipifarnib + Olaparib; first compound 1 µM
  relative viability: 0.739
Tipifarnib + Palbociclib; first compound 0.01 µM
  relative viability: 0.483
Tipifarnib + Palbociclib; first compound 0.03162 µM
  relative viability: 0.384
Tipifarnib + Palbociclib; first compound 0.1 µM
  relative viability: 0.491
Tipifarnib + Palbociclib; first compound 0.3162 µM
  relative viability: 0.411
Tipifarnib + Palbociclib; first compound 1 µM
  relative viability: 0.571
Tipifarnib + Alpelisib; first compound 0.01 µM
  relative viability: 0.949
Tipifarnib + Alpelisib; first compound 0.03162 µM
  relative viability: 0.964
Tipifarnib + Alpelisib; first compound 0.1 µM
  relative viability: 0.924
Tipifarnib + Alpelisib; first compound 0.3162 µM
  relative viability: 0.792
Tipifarnib + Alpelisib; first compound 1 µM
  relative viability: 0.768
Tipifarnib + Pemetrexed; first compound 0.01 µM
  relative viability: 0.517
Tipifarnib + Pemetrexed; first compound 0.03162 µM
  relative viability: 0.45
Tipifarnib + Pemetrexed; first compound 0.1 µM
  relative viability: 0.49
Tipifarnib + Pemetrexed; first compound 0.3162 µM
  relative viability: 0.49
Tipifarnib + Pemetrexed; first compound 1 µM
  relative viability: 0.507

## LK-2
Tipifarnib + Olaparib; first compound 0.01 µM
  relative viability: 0.779
Tipifarnib + Olaparib; first compound 0.03162 µM
  relative viability: 0.651
Tipifarnib + Olaparib; first compound 0.1 µM
  relative viability: 0.443
Tipifarnib + Olaparib; first compound 0.3162 µM
  relative viability: 0.329
Tipifarnib + Olaparib; first compound 1 µM
  relative viability: 0.347
Tipifarnib + Palbociclib; first compound 0.01 µM
  relative viability: 0.586
Tipifarnib + Palbociclib; first compound 0.03162 µM
  relative viability: 0.543
Tipifarnib + Palbociclib; first compound 0.1 µM
  relative viability: 0.481
Tipifarnib + Palbociclib; first compound 0.3162 µM
  relative viability: 0.474
Tipifarnib + Palbociclib; first compound 1 µM
  relative viability: 0.42
Tipifarnib + Alpelisib; first compound 0.01 µM
  relative viability: 1.21
Tipifarnib + Alpelisib; first compound 0.03162 µM
  relative viability: 1.06
Tipifarnib + Alpelisib; first compound 0.1 µM
  relative viability: 0.827
Tipifarnib + Alpelisib; first compound 0.3162 µM
  relative viability: 0.544
Tipifarnib + Alpelisib; first compound 1 µM
  relative viability: 0.639
Tipifarnib + Pemetrexed; first compound 0.01 µM
  relative viability: 0.31
Tipifarnib + Pemetrexed; first compound 0.03162 µM
  relative viability: 0.313
Tipifarnib + Pemetrexed; first compound 0.1 µM
  relative viability: 0.279
Tipifarnib + Pemetrexed; first compound 0.3162 µM
  relative viability: 0.232
Tipifarnib + Pemetrexed; first compound 1 µM
  relative viability: 0.122
